In patent US20230087118A1, “IMIDAZO[1,2-a][sequence] DERIVATIVES AND THEIR USE IN THE TREATMENT OF DISEASE” (priority 2019, published 2023) one finds IC50 data, which are given here for 36 molecules.

SMILES strings stand for the structures. Where a name gives a salt, the structure may show the parent alone.

The target of the first test is T1, IRAK4 (Homo sapiens, UniProt Q9NWZ3).
T1 sequence (Q9NWZ3 1-460): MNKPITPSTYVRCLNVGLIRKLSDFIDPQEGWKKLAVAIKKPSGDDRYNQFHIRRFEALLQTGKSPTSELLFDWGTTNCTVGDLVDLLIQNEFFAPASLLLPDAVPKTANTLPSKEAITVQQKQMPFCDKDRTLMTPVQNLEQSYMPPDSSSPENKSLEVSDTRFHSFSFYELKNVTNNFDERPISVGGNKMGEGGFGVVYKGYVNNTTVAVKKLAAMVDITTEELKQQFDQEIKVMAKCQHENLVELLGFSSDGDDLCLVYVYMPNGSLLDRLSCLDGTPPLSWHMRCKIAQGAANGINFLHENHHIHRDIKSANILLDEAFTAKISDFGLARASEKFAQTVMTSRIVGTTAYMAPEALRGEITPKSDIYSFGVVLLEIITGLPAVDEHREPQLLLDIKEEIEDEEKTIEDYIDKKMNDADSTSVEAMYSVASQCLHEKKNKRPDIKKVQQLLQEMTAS
Put plainly: biochemical.
Details: not given
The IC50 is the concentration at which inhibition is half-maximal. `COc1cc2nc(C3CCOCC3)cn2cc1C(=O)Nc1csnc1C` [Example 108]: the IC50 amounted to 0.0669 µM. `COc1cnccc1NC(=O)c1cn2cc(C3CCOCC3)nc2cc1OC` [Example 195] registered an IC50 of 0.123 µM.

Molecule `COc1nc(C(=O)Nc2ccnn2C)cn2cc(C3CCOCC3)nc12` [Example 89] yielded an IC50 of 5.69 µM.

`CC(C)Oc1cc2nc(C34COC(C)(C3)C4)cn2cc1C(=O)Nc1cccc2ccnn12` [Example 221]: the half-inhibitory concentration (IC50) is 0.0006 µM. On the same count and under the same terms, for `CCOc1cc(C(=O)Nc2cccc(C(F)F)n2)cn2cc([C@@H]3CCCOC3)nc12` (single isomer, unassigned) [Example 54] the value was 0.0065 µM; for `COc1nc(C(=O)Nc2cccc(C(F)(F)F)n2)cn2cc(C34CCOC(C)(C3)C4)nc12` [Example 238], 0.0064 µM; for `CC(C)Oc1nc2nc(C34CCC(C)(CC3)OC4)cn2cc1C(=O)Nc1cccn(C(F)F)c1=O` [Example 384, N-(1-(difluoromethyl)-2-oxo-1,2-dihydropyridin-3-yl)-7-isopropoxy-2-(1-methyl-2-oxabicyclo[2.2.2]octan-4-yl)imidazo[1,2-a]pyrimidine-6-carboxamide], 0.0002 µM. The same measure, in the same setting: for `CC(C)Oc1cc2nc([C@]34CC[C@](C)(C3)OC4)cn2cc1C(=O)Nc1cnn2cccnc12` (single isomer, unassigned) [Example 614] the value was 0.0002 µM; for `COc1cccc(NC(=O)c2cn3cc(C(F)F)nc3cc2OC(C)C)n1` [Example 100], 0.0178 µM.

Consider `Cc1cnc2c(NC(=O)c3cn4cc(C56COC(C)(C5)C6)nc4nc3OC3CCC3)cnn2c1` [Example 575, 7-Cyclobutoxy-2-(1-methyl-2-oxabicyclo[2.1.1]hexan-4-yl)-N-(6-methylpyrazolo[1,5-a]pyrimidin-3-yl)imidazo[1,2-a]pyrimidine-6-carboxamide], for which the IC50 is 0.0007 µM. Molecule `CC12CC(c3cn4cc(C(=O)Nc5ccn(C(F)F)n5)c(OCC5CC5)nc4n3)(CO1)C2` [Example 639, 7-(Cyclopropylmethoxy)-N-(1-(difluoromethyl)-1H-pyrazol-3-yl)-2-(1-methyl-2-oxabicyclo[2.1.1]hexan-4-yl)imidazo[1,2-a]pyrimidine-6-carboxamide] gave an IC50 of 0.0181 µM.

`CC(C)Oc1nc(C(=O)Nc2cccn(C)c2=O)cn2cc(C34CCC(C)(CC3)OC4)nc12` [Example 427, 8-Isopropoxy-N-(1-methyl-2-oxo-1,2-dihydropyridin-3-yl)-2-(1-methyl-2-oxabicyclo[2.2.2]octan-4-yl)imidazo[1,2-a]pyrazine-6-carboxamide] came in with a 50% inhibitory concentration (IC50) of 0.0007 µM. Molecule `CC(C)Oc1nc2nc(C34CCC(C)(CC3)OC4)cn2cc1C(=O)Nc1cnn2cccnc12` [Example 431] registered an IC50 of 0.0008 µM. The same measure, in the same setting: under `COc1nc(C(=O)Nc2ccn(C)n2)cn2cc(C3CCOCC3)nc12` [Example 88] stands 0.0509 µM.

For `CCOc1nc(C(=O)Nc2ccn(CC3CC3)n2)cn2cc(C34CCC(C)(C3)OC4)nc12` (stereo not drawn) [Example 282, N-(1-(cyclopropylmethyl)-1H-pyrazol-3-yl)-8-ethoxy-2-(1-methyl-2-oxabicyclo[2.2.1]heptan-4-yl)imidazo[1,2-a]pyrazine-6-carboxamide], it took 0.0087 µM to reach half-maximal inhibition (IC50). On to `Cc1ccn2ncc(NC(=O)c3cn4cc(C56COC(C)(C5)C6)nc4nc3OC(C)C)c2n1` [Example 374, 7-Isopropoxy-2-(1-methyl-2-oxabicyclo[2.1.1]hexan-4-yl)-N-(5-methyl-pyrazolo[1,5-a]pyrimidin-3-yl)imidazo[1,2-a]pyrimidine-6-carboxamide], for which the IC50 was 0.0014 µM. On to `CCOc1nc(C(=O)Nc2cc(F)cnc2OC)cn2cc(C3CCCOC3)nc12` (stereo not drawn) [Example 271, 8-Ethoxy-N-(5-fluoro-2-methoxypyridin-3-yl)-2-(tetrahydro-2H-pyran-3-yl)imidazo[1,2-a]pyrazine-6-carboxamide], for which the half-maximal inhibitory concentration (IC50) came out at 0.0073 µM.

`CC(C)Oc1nc2nc(C34COC(C)(C3)C4)cn2cc1C(=O)Nc1cccn2cnnc12` [Example 409, N-([1,2,4]triazolo[4,3-a]pyridin-8-yl)-7-isopropoxy-2-(1-methyl-2-oxabicyclo[2.1.1]hexan-4-yl)imidazo[1,2-a]pyrimidine-6-carboxamide] showed a half-maximal inhibitory concentration (IC50) of 0.0015 µM. In turn, `COc1cc2nc(C34COC(C)(C3)C4)cn2cc1C(=O)Nc1ccccn1` [Example 1, 7-Methoxy-2-(1-methyl-2-oxabicyclo[2.1.1]hexan-4-yl)-N-(2-pyridyl)imidazo[1,2-a]pyridine-6-carboxamide] returned a 50% inhibitory concentration (IC50) of 0.0298 µM. For `CCOc1nc2nc(C34COC(C)(C3)C4)cn2cc1C(=O)Nc1cccc(C(F)F)n1` [Example 241], the IC50 turned out to be 0.0015 µM. As for `CCOc1cc2nc([C@@H]3CC3(F)F)cn2cc1C(=O)Nc1cccc(OC)n1` (single isomer, unassigned) [Example 69], it took 0.0444 µM to reach half-maximal inhibition (IC50). The molecule `COc1cc2nc(C34COC(C)(C3)C4)cn2cc1C(=O)Nc1cccc(C(F)F)n1` [Example 293, N-(6-(difluoromethyl)pyridin-2-yl)-7-methoxy-2-(1-methyl-2-oxabicyclo[2.1.1]hexan-4-yl)imidazo[1,2-a]pyridine-6-carboxamide] showed a half-maximal inhibitory concentration (IC50) of 0.0028 µM. With `COCc1cc2nc(C34COC(C)(C3)C4)cn2cc1C(=O)Nc1cccn(C)c1=O` [Example 287, 7-(Methoxymethyl)-N-(1-methyl-2-oxo-1,2-dihydropyridin-3-yl)-2-(1-methyl-2-oxabicyclo[2.1.1]hexan-4-yl)imidazo[1,2-a]pyridine-6-carboxamide], half-maximal inhibition (IC50) required 7.14 µM. In the case of `COc1cc2nc(C3CCOCC3)cn2cc1C(=O)Nc1ccc(F)cc1OC(C)C` [Example 109], the IC50 worked out at 0.114 µM.

The same test, now with this note: IRAK4 Biochemical Assay (1 mM ATP, 2 h) IC50 (μM), 1 mM ATP, 2 h, 100 pM IRAK4.
In turn, `CC(C)Oc1cc2nc(C3C4COCC43)cn2cc1C(=O)Nc1cccc(C(F)F)n1` (stereo not drawn) [Example 253, 2-(3-Oxabicyclo[3.1.0]hexan-6-yl)-N-(6-(difluoromethyl)pyridin-2-yl)-7-isopropoxyimidazo[1,2-a]pyridine-6-carboxamide hydrochloride] came in with an IC50 of 0.0004 µM. Molecule `CC12CC(c3cn4cc(C(=O)Nc5cccn(C(F)F)c5=O)c(OCC5(F)CCOCC5)cc4n3)(CO1)C2` [Example 456, N-(1-(difluoromethyl)-2-oxo-1,2-dihydropyridin-3-yl)-7-((4-fluorotetrahydro-2H-pyran-4-yl)methoxy)-2-(1-methyl-2-oxabicyclo[2.1.1]hexan-4-yl)imidazo[1,2-a]pyridine-6-carboxamide] came in with a half-inhibitory concentration (IC50) of 0.0071 µM. `CC(C)Oc1nc2nc(C34COC(C)(C3)C4)cn2cc1C(=O)Nc1cccc(C(F)F)n1` [Example 218] returned an IC50 of 0.0002 µM. On the same count and under the same terms, under `O=C(Nc1cccc(C(F)F)n1)c1cn2cc(C3CC3)nc2cc1OC1CC(C(F)F)C1` (stereo not drawn) [Example 477, 2-Cyclopropyl-7-(3-(difluoromethyl)cyclobutoxy)-N-(6-(difluoromethyl)pyridin-2-yl)imidazo[1,2-a]pyridine-6-carboxamide] stands 0.0011 µM; under `CC(C)Oc1cc2nc(C34COC(C)(C3)C4)cn2cc1C(=O)Nc1cccc(C2CC2)n1` [Example 296, N-(6-cyclopropylpyridin-2-yl)-7-isopropoxy-2-(1-methyl-2-oxabicyclo[2.1.1]hexan-4-yl)imidazo[1,2-a]pyridine-6-carboxamide trifluoroacetate], 0.0011 µM; under `CCOc1nc(C(=O)Nc2cccnc2OC)cn2cc(C3CC3)nc12` [Example 279, 2-Cyclopropyl-8-ethoxy-N-(2-methoxypyridin-3-yl)imidazo[1,2-a]pyrazine-6-carboxamide trifluoroacetate], 0.0038 µM. Molecule `Cc1cnc2c(NC(=O)c3cn4cc(C56CC(C)(C5)OC6(C)C)nc4nc3OC(C)C)cnn2c1` [Example 311, 7-Isopropoxy-N-(6-methylpyrazolo[1,5-a]pyrimidin-3-yl)-2-(1,3,3-trimethyl-2-oxabicyclo[2.1.1]hexan-4-yl)imidazo[1,2-a]pyrimidine-6-carboxamide trifluoroacetate] yielded a concentration for half-maximal inhibition (IC50) of 0.0014 µM. `CC(C)Oc1nc2nc(C34CCC(C)(CC3)OC4)cn2cc1C(=O)Nc1cccc(C(F)F)n1` [Example 383, N-(6-(difluoromethyl)pyridin-2-yl)-7-isopropoxy-2-(1-methyl-2-oxabicyclo[2.2.2]octan-4-yl)imidazo[1,2-a]pyrimidine-6-carboxamide] showed an IC50 of 0.0001 µM.

On to `CCc1cccc(NC(=O)c2cn3cc(C4CCOCC4)nc3cc2OC)n1` [Example 59], for which the IC50 was 0.0137 µM. The molecule `CC(C)Oc1nc2nc(C34COC(C)(C3)C4)cn2cc1C(=O)Nc1cccc2c1ncn2C` [Example 379, 7-Isopropoxy-N-(1-methyl-1H-benzo[d]imidazol-4-yl)-2-(1-methyl-2-oxabicyclo[2.1.1]hexan-4-yl)imidazo[1,2-a]pyrimidine-6-carboxamide trifluoroacetate] had an IC50 of 0.001 µM. For the molecule `COc1ccc2ncc(NC(=O)c3cn4cc(C56COC(C)(C5)C6)nc4nc3OC(C)C)n2n1` [Example 308, 7-Isopropoxy-N-(6-methoxyimidazo[1,2-b]pyridazin-3-yl)-2-(1-methyl-2-oxabicyclo[2.1.1]hexan-4-yl)imidazo[1,2-a]pyrimidine-6-carboxamide trifluoroacetate], the IC50 stood at 0.002 µM. Molecule `COc1cccc(NC(=O)c2cn3cc(C45COC(C)(C4)C5)nc3cc2OC(C)C)n1` [Example 97, 7-Isopropoxy-N-(6-methoxypyridin-2-yl)-2-(1-methyl-2-oxabicyclo[2.1.1]hexan-4-yl)imidazo[1,2-a]pyridine-6-carboxamide] showed an IC50 of 0.0003 µM.
